# Measurements from PubChem BioAssay (NCI).
#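 96-well plates; 48 h exposure; 5 concentrations. Endpoints by linear interpolation between flanking doses. Not reached: highest tested concentration assigned. Here, GI50 denotes the concentration required for 50% inhibition of growth. TGI: total growth inhibition.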
# Experiments:
# Test in all cases: NCI tumour cell line growth inhibition, 48 h
# TK-10 renal = tested on: TK-10 renal
# SK-MEL-2 melanoma = tested on: SK-MEL-2 melanoma
# HCT-116 colon = tested on: HCT-116 colon
# RPMI-8226 leukemia = tested on: RPMI-8226 leukemia
# A549 NSCLC = tested on: A549 NSCLC
# HS 578T breast = tested on: HS 578T breast
# CAKI-1 renal = tested on: CAKI-1 renal
# PC-3 prostate = tested on: PC-3 prostate
# HOP-92 NSCLC = tested on: HOP-92 NSCLC
# SNB-19 CNS = tested on: SNB-19 CNS
# SF-295 CNS = tested on: SF-295 CNS
# ACHN renal = tested on: ACHN renal
# MDA-MB-435 = tested on: MDA-MB-435
# NCI-H23 lung = tested on: NCI-H23 lung
# T-47D breast = tested on: T-47D breast
# HOP-62 NSCLC = tested on: HOP-62 NSCLC
# MALME-3M melanoma = tested on: MALME-3M melanoma
# SW-620 colon = tested on: SW-620 colon
# SF-539 CNS = tested on: SF-539 CNS
# HT29 colon = tested on: HT29 colon
# COLO 205 colon = tested on: COLO 205 colon
# DU-145 prostate = tested on: DU-145 prostate
# OVCAR-4 ovarian = tested on: OVCAR-4 ovarian
# LOX IMVI melanoma = tested on: LOX IMVI melanoma
# MCF7 breast = tested on: MCF7 breast
# K-562 leukemia = tested on: K-562 leukemia
# KM12 colon = tested on: KM12 colon
# NCI-H522 lung = tested on: NCI-H522 lung
# IGROV1 ovarian = tested on: IGROV1 ovarian
# BT-549 breast = tested on: BT-549 breast
# HCC-2998 colon = tested on: HCC-2998 colon
# MOLT-4 leukemia = tested on: MOLT-4 leukemia
# SK-OV-3 ovarian = tested on: SK-OV-3 ovarian
# HCT-15 colon = tested on: HCT-15 colon
# SK-MEL-5 melanoma = tested on: SK-MEL-5 melanoma
# OVCAR-5 ovarian = tested on: OVCAR-5 ovarian
# EKVX NSCLC = tested on: EKVX NSCLC
# SN12C renal = tested on: SN12C renal
# UACC-62 melanoma = tested on: UACC-62 melanoma
# A498 renal = tested on: A498 renal
# NCI-H226 lung = tested on: NCI-H226 lung
# U251 CNS = tested on: U251 CNS
# MDA-MB-231 breast = tested on: MDA-MB-231 breast
# RXF 393 renal = tested on: RXF 393 renal
# SF-268 CNS = tested on: SF-268 CNS
# CCRF-CEM leukemia = tested on: CCRF-CEM leukemia
# UACC-257 melanoma = tested on: UACC-257 melanoma
# NCI/ADR-RES ovarian = tested on: NCI/ADR-RES ovarian
# HL-60(TB) leukemia = tested on: HL-60(TB) leukemia
# SK-MEL-28 melanoma = tested on: SK-MEL-28 melanoma
# OVCAR-8 ovarian = tested on: OVCAR-8 ovarian
# 786-0 renal = tested on: 786-0 renal
# SNB-75 CNS = tested on: SNB-75 CNS
# UO-31 renal = tested on: UO-31 renal
# NCI-H460 lung = tested on: NCI-H460 lung
# M14 melanoma = tested on: M14 melanoma
compound,measurement,setting,value
CS(=O)(=O)Nc1cc(-c2ccc3ncc(C#N)c(Nc4cccc(Cl)c4F)c3c2)cnc1Cl,GI50,TK-10 renal,84.7 nM
same,TGI,TK-10 renal,926 nM
same,GI50,SK-MEL-2 melanoma,29.2 nM
same,TGI,SK-MEL-2 melanoma,177 nM
same,GI50,HCT-116 colon,66.5 nM
same,TGI,HCT-116 colon,1140 nM
same,GI50,RPMI-8226 leukemia,94.7 nM
same,TGI,RPMI-8226 leukemia,1170 nM
same,GI50,A549 NSCLC,763 nM
same,TGI,A549 NSCLC,2840 nM
same,GI50,HS 578T breast,56.7 nM
same,TGI,HS 578T breast,537 nM
same,GI50,CAKI-1 renal,72.9 nM
same,TGI,CAKI-1 renal,1590 nM
same,GI50,PC-3 prostate,260 nM
same,TGI,PC-3 prostate,3600 nM
same,GI50,HOP-92 NSCLC,21.9 nM
same,TGI,HOP-92 NSCLC,348 nM
same,GI50,SNB-19 CNS,288 nM
same,TGI,SNB-19 CNS,3110 nM
same,GI50,SF-295 CNS,267 nM
same,TGI,SF-295 CNS,3250 nM
same,GI50,ACHN renal,591 nM
same,TGI,ACHN renal,21200 nM
same,GI50,MDA-MB-435,277 nM
same,TGI,MDA-MB-435,3000 nM
same,GI50,NCI-H23 lung,158 nM
same,TGI,NCI-H23 lung,9360 nM
same,GI50,T-47D breast,101 nM
same,TGI,T-47D breast,4790 nM
same,GI50,HOP-62 NSCLC,198 nM
same,TGI,HOP-62 NSCLC,7800 nM
same,GI50,MALME-3M melanoma,68.3 nM
same,TGI,MALME-3M melanoma,708 nM
same,GI50,SW-620 colon,73.3 nM
same,TGI,SW-620 colon,1820 nM
same,GI50,SF-539 CNS,181 nM
same,TGI,SF-539 CNS,2860 nM
same,GI50,HT29 colon,329 nM
same,TGI,HT29 colon,2320 nM
same,GI50,COLO 205 colon,219 nM
same,TGI,COLO 205 colon,955 nM
same,GI50,DU-145 prostate,289 nM
same,TGI,DU-145 prostate,5460 nM
same,GI50,OVCAR-4 ovarian,495 nM
same,TGI,OVCAR-4 ovarian,8090 nM
same,GI50,LOX IMVI melanoma,107 nM
same,TGI,LOX IMVI melanoma,641 nM
same,GI50,MCF7 breast,64.3 nM
same,TGI,MCF7 breast,4030 nM
same,GI50,K-562 leukemia,115 nM
same,TGI,K-562 leukemia,> 100000 nM
same,GI50,KM12 colon,324 nM
same,TGI,KM12 colon,2090 nM
same,GI50,NCI-H522 lung,255 nM
same,TGI,NCI-H522 lung,2670 nM
same,GI50,IGROV1 ovarian,101 nM
same,TGI,IGROV1 ovarian,869 nM
same,GI50,BT-549 breast,56 nM
same,TGI,BT-549 breast,959 nM
same,GI50,HCC-2998 colon,507 nM
same,TGI,HCC-2998 colon,2190 nM
same,GI50,MOLT-4 leukemia,82.3 nM
same,TGI,MOLT-4 leukemia,1580 nM
same,GI50,SK-OV-3 ovarian,360 nM
same,TGI,SK-OV-3 ovarian,2610 nM
same,GI50,HCT-15 colon,111 nM
same,TGI,HCT-15 colon,2870 nM
same,GI50,SK-MEL-5 melanoma,49.2 nM
same,TGI,SK-MEL-5 melanoma,182 nM
same,GI50,OVCAR-5 ovarian,749 nM
same,TGI,OVCAR-5 ovarian,3920 nM
same,GI50,EKVX NSCLC,367 nM
same,TGI,EKVX NSCLC,2630 nM
same,GI50,SN12C renal,152 nM
same,TGI,SN12C renal,39400 nM
same,GI50,UACC-62 melanoma,120 nM
same,TGI,UACC-62 melanoma,1580 nM
same,GI50,A498 renal,93.7 nM
same,TGI,A498 renal,471 nM
same,GI50,NCI-H226 lung,556 nM
same,TGI,NCI-H226 lung,11100 nM
same,GI50,U251 CNS,59.1 nM
same,TGI,U251 CNS,1280 nM
same,GI50,MDA-MB-231 breast,333 nM
same,TGI,MDA-MB-231 breast,2310 nM
same,GI50,RXF 393 renal,76.8 nM
same,TGI,RXF 393 renal,910 nM
same,GI50,SF-268 CNS,87.6 nM
same,TGI,SF-268 CNS,1810 nM
same,GI50,CCRF-CEM leukemia,90.6 nM
same,TGI,CCRF-CEM leukemia,> 39900 nM
same,GI50,UACC-257 melanoma,400 nM
same,TGI,UACC-257 melanoma,4540 nM
same,GI50,NCI/ADR-RES ovarian,1250 nM
same,TGI,NCI/ADR-RES ovarian,20700 nM
same,GI50,HL-60(TB) leukemia,94 nM
same,GI50,SK-MEL-28 melanoma,189 nM
same,TGI,SK-MEL-28 melanoma,2820 nM
same,GI50,OVCAR-8 ovarian,369 nM
same,TGI,OVCAR-8 ovarian,4230 nM
same,GI50,786-0 renal,366 nM
same,TGI,786-0 renal,3550 nM
same,GI50,SNB-75 CNS,< 13.1 nM
same,TGI,SNB-75 CNS,395 nM
same,GI50,UO-31 renal,205 nM
same,TGI,UO-31 renal,2920 nM
same,GI50,NCI-H460 lung,391 nM
same,TGI,NCI-H460 lung,10900 nM
same,GI50,M14 melanoma,308 nM
same,TGI,M14 melanoma,3580 nM
